Assays:
sedge, umbrella = test: Test C flooded paddy test; type: in vivo, Cyperus difformis; conditions: Flood, scale 0 to 100 (0 no effect, 100 complete control), 13 to 15 days
Summary of the method: (§1)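 In-water treatment: compound dosed into 3 cm flood over soil, water level unchanged throughout. Controls run alongside; visual assessment at day 13–15.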

barnyardgrass [1] = test: Test C flooded paddy test; type: in vivo, Echinochloa crus-galli; conditions: Flood, scale 0 to 100 (0 no effect, 100 complete control), 13 to 15 days
Summary of the method: as §1

Brazilian crabgrass = test: Test E postemergence; type: in vivo, Digitaria horizontalis
Text: (§2) Seeds of plant species selected from corn (Zea mays), soybean (Glycine max), velvetleaf (Abutilon theophrasti), lambsquarters (Chenopodium album), wild poinsettia (Euphorbia heterophylla), palmer pigweed (Amaranthus palmeri), waterhemp (common waterhemp, Amaranthus rudis), surinam grass (Brachiaria decumbens), large (Lg) crabgrass (Digitaria sanguinalis), Brazilian crabgrass (Digitaria horizontalis), fall panicum (Panicum dichotomiflorum), giant foxtail (Setaria faberii), green foxtail (Setaria viridis), goosegrass (Eleusine indica), johnsongrass (Sorghum halepense), ragweed (common ragweed, Ambrosia elatior), barnyardgrass (Echinochloa crus-galli), sandbur (southern sandbur, Cenchrus echinatus), arrowleaf sida (Sida rhombifolia), Italian ryegrass (Lolium multiflorum), dayflower (Virginia (VA) dayflower, Commelina virginica), field bindweed (Convolvulus arvensis), morningglory (Ipomoea coccinea), nightshade (eastern black nightshade, Solanum ptycanthum), kochia (Kochia scoparia), yellow nutsedge (Cyperus esculentus), cocklebur (common cocklebur, Xanthium strumarium), smartweed (ladysthumb smartweed, and hairy beggarticks (Bidens pilosa), were planted into a silt loam soil and treated preemergence with test chemicals formulated in a non-phytotoxic solvent mixture which included a surfactant.
(§3) At the same time, plants from these crop and weed species and also horseweed (Canada horseweed, Conyza canadensis), waterhemp_RES1, (ALS & Triazine resistant common waterhemp, Amaranthus rudis), and waterhemp_RES2, (ALS & HPPD resistant common waterhemp, Amaranthus rudis) were planted in pots containing Redi-Earth® planting medium (Scotts Company, 14111 Scottslawn Road, Marysville, Ohio 43041) comprising spaghnum peat moss, vermiculite, wetting agent and starter nutrients were treated with postemergence applications of test chemicals formulated in the same manner. Plants ranged in height from 2 to 18 cm for postemergence treatments (1- to 4-leaf stage). Treated plants and controls were maintained in a greenhouse for 14 to 21 days, after which time all species were compared to controls and visually evaluated. Plant response ratings, summarized in Table E, are based on a scale of 0 to 100 where 0 is no effect and 100 is complete control. A dash (-) response means no test result.

barnyardgrass [2] = test: Test E postemergence; type: in vivo, Echinochloa crus-galli
Text: as §2, §3

hairy beggarticks = test: Test E postemergence; type: in vivo, Bidens pilosa
Text: as §2, §3

corn = test: Test E postemergence; type: in vivo, Zea mays
Text: as §2, §3

dayflower = test: Test E postemergence; type: in vivo, Commelina virginica
Text: as §2, §3

[3] = Postemergence, 31 g ai/ha, scale 0 to 100
[4] = Postemergence, 62 g ai/ha, scale 0 to 100
[5] = Postemergence, 125 g ai/ha, scale 0 to 100
[6] = postemergence, 16 g ai/ha, scale 0 to 100, 0 no effect, 100 complete control

Fc1cccc(Oc2ncc(Cl)cn2)c1-n1cc(C(F)F)nn1 [Compound 141, 5-chloro-2-[2-[4-(difluoromethyl)-1H-1,2,3-triazol-1-yl]-3-fluorophenoxy]pyrimidine]
Plant response rating, Sedge, Umbrella (sedge, umbrella; 31 g ai/ha): 0
Plant response rating, Sedge, Umbrella (sedge, umbrella; 62 g ai/ha): 40
Plant response rating, Sedge, Umbrella (sedge, umbrella; 125 g ai/ha): 75
Plant response rating, Sedge, Umbrella (sedge, umbrella; 250 g ai/ha): 100
Plant response rating, Barnyardgrass (barnyardgrass [1]; 31 g ai/ha): 0
Plant response rating, Barnyardgrass (barnyardgrass [1]; 62 g ai/ha): 0
Plant response rating, Barnyardgrass (barnyardgrass [1]; 125 g ai/ha): 15
Plant response rating, Barnyardgrass (barnyardgrass [1]; 250 g ai/ha): 20

Fc1cccc(Oc2ncc(Cl)cn2)c1-n1cc(Cl)cn1 [Compound 177]
Plant response rating, Sedge, Umbrella (sedge, umbrella; 31 g ai/ha): 0
Plant response rating, Sedge, Umbrella (sedge, umbrella; 62 g ai/ha): 0
Plant response rating, Sedge, Umbrella (sedge, umbrella; 125 g ai/ha): 60
Plant response rating, Sedge, Umbrella (sedge, umbrella; 250 g ai/ha): 85
Plant response rating, Barnyardgrass (barnyardgrass [1]; 31 g ai/ha): 0
Plant response rating, Barnyardgrass (barnyardgrass [1]; 62 g ai/ha): 0
Plant response rating, Barnyardgrass (barnyardgrass [1]; 125 g ai/ha): 0
Plant response rating, Barnyardgrass (barnyardgrass [1]; 250 g ai/ha): 0

Clc1cnc(Oc2cccc(Cl)c2-n2cc(I)cn2)nc1 [Compound 181]
Plant response rating, Crabgrass, Brazil (Brazilian crabgrass; [3]): 20
Plant response rating, Crabgrass, Brazil (Brazilian crabgrass; [4]): 30
Plant response rating, Crabgrass, Brazil (Brazilian crabgrass; [5]): 30
Plant response rating, Crabgrass, Brazil (Brazilian crabgrass; [6]): 20
Plant response rating, Barnyardgrass (barnyardgrass [2]; [3]): 20
Plant response rating, Barnyardgrass (barnyardgrass [2]; [4]): 15
Plant response rating, Barnyardgrass (barnyardgrass [2]; [5]): 25
Plant response rating, Barnyardgrass (barnyardgrass [2]; [6]): 10
Plant response rating, Beggarticks (hairy beggarticks; [3]): 40
Plant response rating, Beggarticks (hairy beggarticks; [4]): 50
Plant response rating, Beggarticks (hairy beggarticks; [5]): 60
Plant response rating, Beggarticks (hairy beggarticks; [6]): 40
Plant response rating, Corn (corn; [3]): 5
Plant response rating, Corn (corn; [4]): 15
Plant response rating, Corn (corn; [5]): 15
Plant response rating, Corn (corn; [6]): 5
Plant response rating, Dayflower, VA (dayflower; [3]): 30
Plant response rating, Dayflower, VA (dayflower; [4]): 40
Plant response rating, Dayflower, VA (dayflower; [5]): 60
Plant response rating, Dayflower, VA (dayflower; [6]): 20

FC(F)c1cnn(-c2c(Cl)cccc2Oc2ncc(Cl)cn2)c1 [Compound 192]
Plant response rating, Sedge, Umbrella (sedge, umbrella; 31 g ai/ha): 0
Plant response rating, Sedge, Umbrella (sedge, umbrella; 62 g ai/ha): 0
Plant response rating, Sedge, Umbrella (sedge, umbrella; 125 g ai/ha): 50
Plant response rating, Sedge, Umbrella (sedge, umbrella; 250 g ai/ha): 85
Plant response rating, Barnyardgrass (barnyardgrass [1]; 31 g ai/ha): 0
Plant response rating, Barnyardgrass (barnyardgrass [1]; 62 g ai/ha): 0
Plant response rating, Barnyardgrass (barnyardgrass [1]; 125 g ai/ha): 0
Plant response rating, Barnyardgrass (barnyardgrass [1]; 250 g ai/ha): 0

Reference: US9695155B2, “Herbicidal substituted pyrimidinyloxy benzene compounds” (E. I. DU PONT DE NEMOURS AND COMPANY, priority 2013, dated 2017)
